Patent US8450354B2, “Substituted imidazo[1,2-b]pyridazine derivatives, pharmaceutical compositions, and methods of use as β-secretase inhibitors” (High Point Pharmaceuticals, LLC, priority 2010, dated 2013)

How the values were obtained:
[1] = tested on: Aβ1-40 secreted from HEK293 cells stably expressing wildtype human APP695 protein (HEK-APPwt cells); proteolytic activity of BACE; assay: Aβ Cell Based Assay (Aβ1-40 secretion, ELISA); settings: 6 hours incubation, reduction of Aβ1-40 secretion, asterisk = mean
Protocol: (§1) Aβ Cell Based Assay Procedure
(§2) In the following assay, the proteolytic activity of BACE in cells exposed to varying concentrations of a compound of interest is measured by observing the amount of Aβ1-40 secreted from HEK293 cells (Human Embryonic Kidney epithelial cell line) stably expressing wildtype human APP695 protein (HEK-APPwt cells).
(§3) HEK-APPwt cells were grown in high glucose DMEM (Dulbecco's Modified Eagles Medium SIGMA Cat. #D5796) supplemented with 25 mM HEPES (4-(2-hydroxyethyl)-1-piperazineethanesulfonic acid) (pH 7.4) (Invitrogen Cat. #15630-114), 0.1 mM NEAA (Non-essential Amino Acids) (BioWhittaker Cat. #13-114E), 10% fetal bovine serum (SIGMA Cat. #F4135) and 250 μg/mL hygromycin (Invitrogen Cat. #10687-010) in T-225 flasks at 37° C. with 5% CO2 and humidity control.
(§4) Test compounds were initially prepared in DMSO and diluted with DMEM media containing 2% FBS (Fetal bovine serum). Ten standard compound solutions were prepared having a range of concentrations. The standard compound solutions were used to determine the EC50 of the test compound. The range of concentrations chosen may depend on the compound's predicted potency.
(§5) To prepare cells for the assay, a flask containing HEK-APPwt cells were trypsinized briefly (1 mL trypsin), and once the cells detached, 4 mL of 10% FBS-DMEM was added to the flask. The detached cells were centrifuged at 900 rpm for 5 min to form a pellet.
(§6) The HEK-APPwt cell pellet was re-suspended with 10 mL DMEM media containing 2% FBS. 80 μL of the cell suspension was added to each well of a 96-well cell culture plate to give 100×10^4 cells/ml. 10 μL of a standard compound solution was added to each well of the 96-well cell culture plate followed by 10 μL of Alamar blue solution. The cells were incubated at 37° C. in a 5% CO2 incubator for 6 hours.
(§7) At the end of the incubation, the plates were removed from incubator, and the supernatant was collected. Aβ1-40 concentration in the medium was measured by using a commercial Aβ1-X ELISA kit (IBL, Japan Cat. #27729). Briefly, the ELISA plates were coated with an anti-human Aβ (N)(82E1) mouse IgG monoclonal antibody. A horseradish peroxidase conjugated anti-human Aβ11-28 mouse IgG monoclonal antibody was used for detection. The cell culture supernatant was diluted with EIA buffer+protease inhibitors (kit buffer containing protease inhibitors (1 mL PI/30 mL buffer)). A 100 μL aliquot of the diluted supernatant was added to each well of the ELISA plate and incubated for 6 hrs at 4° C. The ELISA plate was washed 8 times with phosphate buffered saline (PBS) containing 0.05% TWEEN 20.
(§8) A 100 μL of detection antibody was then added and incubated for 1 hour at 4° C. The plate was washed 8 times with PBS buffer containing 0.05% Tween 20 followed by addition of 100 μL of the chromogen tetramethylbenzidine (TMB). The plate was incubated in the dark at room temperature for about 30 min and a stop solution (1N H2SO4) was added.
(§9) The intensity of the color developed was measured at 450 nm. The optical density at 450 nm (OD450) is proportional to the concentration of human Aβ1-40 secreted by the cell. As a reference, N—[N-(3,5-difluorophenacetyl-L-alanyl)]—S-phenylglycine t-butyl ester (DAPT, a γ-secretase inhibitor) was used to indicate 100% inhibition of […]. Thus, the assay measures the ability of a compound of interest to reduce Aβ1-40 secretion. Compound potency is reported in Table 3 as the EC50 by calculating the percent inhibition at all concentration levels and the data were fit with non-linear curve fitting algorithm using GraphPad Prism.

BACE-1 enzyme = molecular target: T1, BACE-1 enzyme (Homo sapiens, UniProt P56817); assay: BACE Fluorescence Resonance Energy Transfer (FRET) Assay; type: biochemical; settings: pH 4-4.5, 30 min pre-incubation, about 1.5 hours reaction, asterisk = mean
T1 construct: purchased R & D Systems 931AS
Protocol: BACE Fluorescence Resonance Energy Transfer (FRET) Assay
In the following assay, the proteolytic activity of BACE is measured by observing cleavage of a fluorescent group from a peptide substrate containing a rhodamine fluorescent donor and a quenching acceptor.
The inhibitory activity of compounds of Formula (I) may be compared to a statine derived control inhibitor STA200 (MP Biomedical Cat. #STA-200). The cleavage reaction occurs when a BACE-1 substrate (Invitrogen, Cat. #P2986) was added to a reaction mixture containing BACE-1 enzyme (R & D Systems, Cat. #931AS) and allowed to proceed for about 1.5 hours. Fluorescence, used as a marker of BACE activity, is monitored using 540 nm excitation and 585 nm emission wavelengths (Envision, Perkin Elmer).
A typical assay reaction contains BACE-1 enzyme-in assay buffer (50 mM sodium acetate, pH 4-4.5, 0.01% CHAPS (3-[(3-Cholamidopropyl)dimethylammonio]-1-propanesulfonate), 0.0125% TritonX-100, 0.006% EDTA) which is pre-incubated for 30 minutes with test compound in 7.5% DMSO. The reaction is initiated with the addition of BACE-1 substrate in assay buffer and allowed to proceed for about 1.5 hours at room temperature. Assays are conducted in black 384-well microtiter plates and scanned at room temperature using 540 nm excitation and 585 nm emission wavelengths.
In some instances, the percent inhibition at a given concentration is reported instead of the IC50.

[2] = Aβ Cell Based Assay (Aβ1-40 secretion, ELISA); design: species or system human; settings: Homo sapiens, HEK293; HEK-APPwt cells, 6 hours incubation, reduction of Aβ1-40 secretion; asterisk = mean
Protocol: as §1, §2, §3, §4, §5, §6, §7, §8, §9

T1 sequence (P56817 46-457 limits assumed): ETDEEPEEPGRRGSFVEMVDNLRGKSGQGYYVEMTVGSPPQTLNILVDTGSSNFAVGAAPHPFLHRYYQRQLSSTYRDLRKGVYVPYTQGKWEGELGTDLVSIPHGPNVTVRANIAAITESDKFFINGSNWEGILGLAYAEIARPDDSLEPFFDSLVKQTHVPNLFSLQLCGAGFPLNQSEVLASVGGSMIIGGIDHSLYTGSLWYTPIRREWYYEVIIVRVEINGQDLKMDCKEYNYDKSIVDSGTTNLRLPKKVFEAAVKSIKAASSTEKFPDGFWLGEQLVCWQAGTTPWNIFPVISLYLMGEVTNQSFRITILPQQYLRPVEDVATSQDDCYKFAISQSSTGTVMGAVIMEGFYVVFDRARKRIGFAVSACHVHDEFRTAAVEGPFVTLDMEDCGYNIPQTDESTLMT

Row | SMILES | IC50 (BACE-1 enzyme) | EC50 [2] | EC50 [1]
1 | O=C(Nc1nc2cc(-c3cccc(OC(F)(F)F)c3)ccc2[nH]1)c1cn2nc(OCCO)ccc2n1 [Example 143, 6-(2-Hydroxy-ethoxy)-imidazol[1,2-b]pyridazine-2-carboxylic acid [5-(3-trifluoromethoxy-phenyl)-1H-benzoimidazol-2-yl]-amide] | 0.172 µM | – | 1.07 µM
2 | CC[C@@H](O)COc1ccc2nc(C(=O)Nc3nc4cc(-c5cc(F)cc(Cl)c5)ccc4[nH]3)cn2n1 [Example 105] | 0.064 µM | 1.27 µM | –
3 | O=C(Nc1nc2cc(-c3cc(F)cc(Cl)c3)ccc2[nH]1)c1cn2nc(N3CCC(O)CC3)ccc2n1 [Example 142, 6-(4-Hydroxy-piperidin-1-yl)-imidazo[1,2-b]pyridazine-2-carboxylic acid [5-(3-chloro-5-fluoro-phenyl)-1H-benzoimidazol-2-yl]-amide] | 0.134 µM | 0.63 µM | –
4 | C[C@H](O)COc1ccc2nc(C(=O)Nc3nc4cc(-c5cccc(OC(F)(F)F)c5)ccc4[nH]3)cn2n1 [Example 145, 6-((S)-2-hydroxy-propoxy)-imidazo[1,2-b]pyridazine-2-carboxylic acid [5-(3-trifluoromethoxy-phenyl)-1H-benzoimidazol-2-yl]-amide] | 0.15 µM | 1.09 µM | –
5 | CC(C)(O)CCOc1ccc2nc(C(=O)Nc3nc4cc(-c5cc(F)cc(Cl)c5)ccc4[nH]3)cn2n1 [Example 114] | 0.279 µM | 0.33 µM | –
6 | O=C(Nc1nc2cc(-c3cc(F)cc(Cl)c3)ccc2[nH]1)c1cn2nc(OC[C@@H]3CCCO3)ccc2n1 [Example 147, 6-[(S)-1-(Tetrahydro-furan-2-yl)methoxy]-imidazol[1,2-b]pyridazine-2-carboxylic acid [5-(3-chloro-5-fluoro-phenyl)-1H-benzoimidazol-2-yl]-amide] | 0.207 µM | 0.27 µM | –
7 | O=C(Nc1nc2cc(-c3cccc(C(F)(F)F)c3)ccc2[nH]1)c1cn2nc(OCCN3CCCC3=O)ccc2n1 [Example 25] | 0.316 µM | 1.35 µM | –
8 | O=C(Nc1nc2cc(-c3cccc(C(F)(F)F)c3)ccc2[nH]1)c1cn2nc(OCCN3CCCCC3)ccc2n1 [Example 46] | 0.248 µM | 3.81 µM | –
9 | C[C@@H](O)[C@@H](C)Oc1ccc2nc(C(=O)Nc3nc4cc(-c5cccc(C(F)(F)F)c5)ccc4[nH]3)cn2n1 [Example 100] | 0.26 µM | 0.7 µM | –
10 | C[C@@H](O)COc1ccc2nc(C(=O)Nc3nc4cc(-c5ccc(C(F)(F)F)c(Cl)c5)ccc4[nH]3)cn2n1 [Example 122, 6-((R)-2-hydroxy-propoxy)-imidazol[1,2-b]pyridazine-2-carboxylic acid [5-(3-chloro-4-trifluoromethyl-phenyl)-1H-benzoimidazol-2-yl]-amide] | 0.371 µM | 0.1 µM | –
11 | O=C(Nc1nc2cc(-c3cccc(C(F)(F)F)c3)ccc2[nH]1)c1cn2nc(OCCN3CCCCCC3)ccc2n1 [Example 40] | 0.307 µM | 2.68 µM | –
12 | CCC[C@@H](O)COc1ccc2nc(C(=O)Nc3nc4cc(-c5cc(F)cc(Cl)c5)ccc4[nH]3)cn2n1 [Example 124] | 0.419 µM | 0.3 µM | –
13 | CN(C)C(=O)COc1ccc2nc(C(=O)Nc3nc4cc(-c5cccc(C(F)(F)F)c5)ccc4[nH]3)cn2n1 [Example 141] | 0.172 µM | 1.3 µM | –
14 | O=C(Nc1nc2cc(-c3cc(F)cc(Cl)c3)ccc2[nH]1)c1cn2nc(OC3COC4C(O)COC34)ccc2n1 (stereo not drawn) [Example 133] | 0.262 µM | 0.56 µM | –
15 | O=C(Nc1nc2cc(-c3cccc(Cl)c3)ccc2[nH]1)c1cn2nc(OCCO)ccc2n1 [Example 144, 6-(2-hydroxy-ethoxy)-imidazo[1,2-b]pyridazine-2-carboxylic acid [5-(3-chloro-phenyl)-1H-benzoimidazol-2-yl]-amide] | 0.128 µM | 0.94 µM | –
16 | CN1CCN(CCOc2ccc3nc(C(=O)Nc4nc5cc(-c6cccc(OC(F)(F)F)c6)ccc5[nH]4)cn3n2)CC1 [Example 35] | 0.315 µM | 3.13 µM | –

Second part, led by results:

Row | IC50 (BACE-1 enzyme) | EC50 [2] | SMILES | EC50 [1]
17 | 0.123 µM | 2.46 µM | CC1(C)CCC(c2ccc3[nH]c(NC(=O)c4cn5nc(N6CC[C@H](O)C6)ccc5n4)nc3c2)CC1 [Example 86] | –
18 | 0.21 µM | 1.8 µM | CN(C)CCN(C)CCOc1ccc2nc(C(=O)Nc3nc4cc(-c5cc(F)cc(Cl)c5)ccc4[nH]3)cn2n1 [Example 49] | –
19 | 0.3 µM | 2.93 µM | CN1CC[C@H](Oc2ccc3nc(C(=O)Nc4nc5cc(-c6cc(F)cc(Cl)c6)ccc5[nH]4)cn3n2)C1 [Example 69] | –
20 | 0.24 µM | 1.96 µM | O=C(Nc1nc2cc(-c3cccc(OC(F)(F)F)c3)ccc2[nH]1)c1cn2nc(OCCN3CCCCC3)ccc2n1 [Example 47] | –
21 | 0.203 µM | 0.75 µM | O=C(Nc1nc2cc(-c3cccc(OC(F)(F)F)c3)ccc2[nH]1)c1cn2nc(OC[C@H]3CC[C@@H](CO)O3)ccc2n1 [Example 134] | –
22 | 0.267 µM | 0.58 µM | O=C(Nc1nc2cc(-c3cc(F)cc(Cl)c3)ccc2[nH]1)c1cn2nc(OCCN3CCOCC3)ccc2n1 [Example 50] | –
23 | 0.277 µM | 0.33 µM | O=C(Nc1nc2cc(-c3cc(F)cc(Cl)c3)ccc2[nH]1)c1cn2nc(OCC3(CO)CC3)ccc2n1 [Example 104] | –
24 | 0.335 µM | 2.88 µM | CN(C)CCN(C)CCOc1ccc2nc(C(=O)Nc3nc4cc(-c5cccc(C(F)(F)F)c5)ccc4[nH]3)cn2n1 [Example 43] | –
